Test results from patent US11117901B2, “Substituted pyrazolo[4,3-h]quinazolines as choline kinase inhibitors” (NERVIANO MEDICAL SCIENCES S.R.L., priority 2017, dated 2021).

Assays:
hChoKβ FL = biological target: T1, hChoKβ FL (Homo sapiens, UniProt Q9Y259); test: Biochemical kinase inhibition assay (Kinase-Glo luminescent) on hChoKβ FL; details: recombinant hChoKβ FL 30 nM, ATP 5 μM, choline 20 μM, 60 min rt; read-out: ChoKβ IC50
T1 construct: hChoKβ full length (FL), corresponding to aminoacids 2-395; GST (N, cleaved yes); PreScission Protease recognition site (N); made in house; host or cells: Escherichia coli BL21pLysS (DE3)
T1 sequence (Q9Y259 2-395): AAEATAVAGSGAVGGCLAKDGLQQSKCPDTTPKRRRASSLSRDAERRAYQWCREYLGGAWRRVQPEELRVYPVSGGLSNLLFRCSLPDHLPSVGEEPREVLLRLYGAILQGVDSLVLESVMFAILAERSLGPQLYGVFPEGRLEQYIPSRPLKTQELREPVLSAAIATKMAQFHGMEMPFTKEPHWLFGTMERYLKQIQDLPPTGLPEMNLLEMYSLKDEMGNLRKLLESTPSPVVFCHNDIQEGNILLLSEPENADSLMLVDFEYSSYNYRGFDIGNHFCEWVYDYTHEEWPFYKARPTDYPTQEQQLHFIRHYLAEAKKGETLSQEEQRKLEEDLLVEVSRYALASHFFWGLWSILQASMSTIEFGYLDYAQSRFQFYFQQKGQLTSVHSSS
Protocol: (§1) HumanΔ49ChoKα ([…]Δ49N-hChoKα) cDNA fragment 362-1534, corresponding to aminoacids 50 457 (J. Mol. Biol. 2006, 364, 136-151), and hChoKβ full length (FL), corresponding to aminoacids 2-395 ((PLoS ONE 2009, 4, e7819), were amplified by PCR from human library and cloned, inserting upstream a Prescission Protease recognition site, in pDonor 221 vector, using the Gateway Technology® (Invitrogen). After sequence control, LR reaction was performed in the final expression pGEX 2Tg vector. Both the proteins were expressed in Escherichia coli BL21pLysS (DE3) strain in auto-induction (Kessler) medium in the presence of […] carbenicillin at 25° C. for 16 h. Cells were harvested by centrifugation, the pellet was re-suspended in Lysis buffer (50 mM Tris-HCl pH 7.8, 150 mM NaCl, 10% glycerol, 0.2% CHAPS, 20 mM DTT, Protease Inhibitor Cocktail Tablets from Roche Biochemicals) and lysed by Gaulin homogenizer (Niro Soavi). The lysate was cleared by centrifugation. The supernatant was added to GSH resin and let flow by gravity. The GSH resin was washed with 5 column volume (CV) of cold wash buffer (50 mM Tris-HCl pH 7.8, 150 mM NaCl, 10% glycerol), then with 10 CV of the same buffer containing 2 mM of DTT. Both GST-Δ49N-hChoKα and hChoKβ were subjected to on-column cleavage of the GST tag with Prescission Protease overnight. The eluted cleaved proteins were further purified by ion exchange (ResQ 6 mL chromatography column from GE healthcare) with a gradient from 50 to 500 mM NaCl in 30 CV. The fractions containing […]Δ49N-hChoKα or hChoKβ were pooled, concentrated and gel filtered on a Superdex200 16/60 (GE Healthcare). The final protein concentration was estimated using the Bradford assay. All the samples purified were resolved by SDS-PAGE.
(§2) Biochemical Kinase inhibition Assay on Δ49N-hChoKα and hChoKβFL
(§3) The biochemical activity of compounds against Δ49N-ChoKα and ChoK3 FL were determined using the Kinase-Glo™ Luminescent Kinase Assay (Promega cat. V6711). The assay is based on incubation of the recombinant Δ49N-hChoKα and hChoKβ FL produced in house, 2.2 nM and 30 nM, respectively, with the specific substrates, choline (Sigma-Aldrich-C7017) and ATP, followed by quantification, at the end of reaction time, of the residual not reacted ATP.
(§4) Compounds were 3-fold serially diluted from 10 to 0.0005 μM, then incubated for 60 minutes at room temperature in the presence of ATP 5 μM, choline (5 μM for ChoKα and 20 μM for ChoKβ) and enzyme in a final volume of 19 μL of kinase buffer (50 mM Hepes pH 7.5, 10 mM MgCl2, 1 mM DTT, 3 μM Na3VO4 and 0.2 mg/mL BSA). The final concentration of DMSO was 1%. The assay was run in a robotized format on 384-well plates (Perkin Elmer cat. #6005301).
(§5) At the end of the incubation, an amount of 19 μL of KinaseGlo Reagent was added to each well to stop the reaction and after 30 minutes the luminescence signal was measured using ViewLux reader (Perkin Elmer).
(§6) All information about plate dilution, distribution and raw data of inhibition are tracked via barcode reading and stored in an Oracle DB. The data per each molecule are analyzed by an internally customized version of the SW package “Assay Explorer” which provides sigmoidal fittings of the ten-dilution curves for IC50 determination using a 4 parameter logistic equation: y=bottom+(top−bottom)/(1+10^((log IC50−x)*slope)) where x is the logarithm of the inhibitor concentration, y is the response; y starts at bottom and goes to top with a sigmoid shape.

Δ49N-hChoKα = biological target: T2, Δ49N-hChoKα (Homo sapiens, UniProt P35790); test: Biochemical kinase inhibition assay (Kinase-Glo luminescent) on Δ49N-hChoKα; details: recombinant Δ49N-hChoKα 2.2 nM, ATP 5 μM, choline 5 μM, 60 min rt; read-out: ChoKα IC50
T2 construct: cDNA fragment 362-1534, corresponding to aminoacids 50 457; GST (N, cleaved yes); PreScission Protease recognition site (N); made in house; host or cells: Escherichia coli BL21pLysS (DE3)
T2 sequence (P35790 50-439 isoform P35790-2): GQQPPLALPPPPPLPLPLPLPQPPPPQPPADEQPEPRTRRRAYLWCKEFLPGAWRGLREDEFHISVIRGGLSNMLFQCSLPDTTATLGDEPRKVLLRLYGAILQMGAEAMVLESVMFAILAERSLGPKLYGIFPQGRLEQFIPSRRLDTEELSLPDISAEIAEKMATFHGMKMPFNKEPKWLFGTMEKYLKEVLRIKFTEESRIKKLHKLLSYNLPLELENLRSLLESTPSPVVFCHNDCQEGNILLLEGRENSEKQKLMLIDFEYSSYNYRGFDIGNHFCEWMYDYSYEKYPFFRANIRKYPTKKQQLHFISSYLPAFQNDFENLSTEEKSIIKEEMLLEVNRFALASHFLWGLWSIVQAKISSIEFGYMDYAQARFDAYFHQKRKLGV
Protocol: as §1, §2, §3, §4, §5, §6

| Structure (SMILES) | IC50 (hChoKβ FL) [nM] | IC50 (Δ49N-hChoKα) [nM] |
| --- | --- | --- |
| Cc1nc(NC(=O)c2n[nH]c3c2C(C)(C)Cc2cnc(N)nc2-3)sc1C(=O)NC1CCN(C)CC1 [compound 79] | 2380 | 69 |
| CC1CCN(C2CCN(C(=O)Cc3csc(NC(=O)c4nn(C)c5c4C(C)(C)Cc4cnc(N)nc4-5)n3)CC2)CC1 [compound 80] | 3160 | 5 |
| CCOC(=O)c1cnc(NC(=O)c2n[nH]c3c2C(C)(C)Cc2cnc(N)nc2-3)s1 [compound 81] | 5340 | 428 |
| CC1(C)Cc2cnc(N)nc2-c2[nH]nc(C(=O)Nc3ncc(C(=O)O)s3)c21 [compound 82] | 1730 | 300 |
| CC1(C)Cc2cnc(N)nc2-c2[nH]nc(C(=O)Nc3ncc(C(=O)N4CCC(N5CCCCC5)CC4)s3)c21 [compound 84] | 1330 | 111 |
| CNc1ncc2c(n1)-c1c(c(C(=O)Nc3nc(CC(=O)N4CCC(N5CCC(C)CC5)CC4)cs3)nn1C)C(C)(C)C2 [compound 85] | > 10000 | 52 |
| CN1CCC(NC(=O)Cc2csc(NC(=O)c3n[nH]c4c3C(C)(C)Cc3cnc(N)nc3-4)n2)CC1 [compound 86] | 1390 | 57 |
| CC1(C)Cc2cnc(N)nc2-c2[nH]nc(C(=O)Nc3nc(CC(=O)N4CC[C@@H](O)C4)cs3)c21 [compound 87] | > 10000 | 149 |
| CC1(C)Cc2cnc(N)nc2-c2[nH]nc(C(=O)Nc3nc(CC(=O)N4CC[C@H](O)C4)cs3)c21 [compound 88] | > 10000 | 141 |
| CN(C)C1CCN(C(=O)Cc2csc(NC(=O)c3n[nH]c4c3C(C)(C)Cc3cnc(N)nc3-4)n2)CC1 [compound 89] | 400 | 10 |
| CC1(C)Cc2cnc(N)nc2-c2[nH]nc(C(=O)Nc3nc(CC(=O)N4CCC(C(N)=O)CC4)cs3)c21 [compound 90] | > 10000 | 161 |
| CC1(C)Cc2cnc(N)nc2-c2[nH]nc(C(=O)Nc3nc(CC(=O)N4CCC(CO)CC4)cs3)c21 [compound 91] | > 10000 | 98 |
| CC1(C)Cc2cnc(N)nc2-c2[nH]nc(C(=O)Nc3nc(CC(=O)N4CCC(O)CC4)cs3)c21 [compound 92] | > 10000 | 228 |
| CN(C)[C@H]1CCN(C(=O)Cc2csc(NC(=O)c3n[nH]c4c3C(C)(C)Cc3cnc(N)nc3-4)n2)C1 [compound 93] | 761 | 12 |
| CC1(C)Cc2cnc(N)nc2-c2[nH]nc(C(=O)Nc3nc(CC(N)=O)cs3)c21 [compound 94] | 1420 | 73 |
| CN(C)CCCNC(=O)Cc1csc(NC(=O)c2n[nH]c3c2C(C)(C)Cc2cnc(N)nc2-3)n1 [compound 95] | 126 | 15 |
| CCOC(=O)Cc1ccc(NC(=O)c2n[nH]c3c2C(C)(C)Cc2cnc(N)nc2-3)cc1 [compound 96] | 934 | 198 |
| CC1(C)Cc2cnc(N)nc2-c2[nH]nc(C(=O)Nc3ccc(CC(=O)N4CCC(N5CCCCC5)CC4)cc3)c21 [compound 98] | 1290 | 57 |
| CC1(C)Cc2cnc(N)nc2-c2[nH]nc(C(=O)Nc3ccc(O)cc3)c21 [compound 105] | 398 | 229 |
| CC1(C)Cc2cnc(N)nc2-c2[nH]nc(C(=O)Nc3cccc(C4OCCCO4)c3)c21 [compound 106] | 5200 | 343 |
| CC1(C)Cc2cnc(N)nc2-c2[nH]nc(C(=O)Nc3cccc(C=O)c3)c21 [compound 107] | 2680 | 737 |
| Cn1nc(C(=O)Nc2nc(CC(=O)N3CCC(N4CCCCC4)CC3)cs2)c2c1-c1nc(N)ncc1CC2(C)C [compound 108] | 3970 | 5 |
